Data published in patent US20230102554A1 (GB002, INC., priority 2019, published 2023).
pIC50: −log10 of the molar value.

What was measured:
[1] = target: T1, Human PDGFRα, cytoplasmic domain (GST-PDGFRα) (Homo sapiens, UniProt P16234); assay: Human PDGFRα biochemical inhibition assay (off-chip Mobility Shift Assay)
T1 construct: made in house

[2] = target: T2, Human PDGFRβ, cytoplasmic domain (GST-PDGFRβ) (Homo sapiens, UniProt P09619); assay: Human PDGFRβ biochemical inhibition assay (off-chip Mobility Shift Assay)
T2 construct: made in house
T2 sequence (P09619 with tags, fused parts or gaps): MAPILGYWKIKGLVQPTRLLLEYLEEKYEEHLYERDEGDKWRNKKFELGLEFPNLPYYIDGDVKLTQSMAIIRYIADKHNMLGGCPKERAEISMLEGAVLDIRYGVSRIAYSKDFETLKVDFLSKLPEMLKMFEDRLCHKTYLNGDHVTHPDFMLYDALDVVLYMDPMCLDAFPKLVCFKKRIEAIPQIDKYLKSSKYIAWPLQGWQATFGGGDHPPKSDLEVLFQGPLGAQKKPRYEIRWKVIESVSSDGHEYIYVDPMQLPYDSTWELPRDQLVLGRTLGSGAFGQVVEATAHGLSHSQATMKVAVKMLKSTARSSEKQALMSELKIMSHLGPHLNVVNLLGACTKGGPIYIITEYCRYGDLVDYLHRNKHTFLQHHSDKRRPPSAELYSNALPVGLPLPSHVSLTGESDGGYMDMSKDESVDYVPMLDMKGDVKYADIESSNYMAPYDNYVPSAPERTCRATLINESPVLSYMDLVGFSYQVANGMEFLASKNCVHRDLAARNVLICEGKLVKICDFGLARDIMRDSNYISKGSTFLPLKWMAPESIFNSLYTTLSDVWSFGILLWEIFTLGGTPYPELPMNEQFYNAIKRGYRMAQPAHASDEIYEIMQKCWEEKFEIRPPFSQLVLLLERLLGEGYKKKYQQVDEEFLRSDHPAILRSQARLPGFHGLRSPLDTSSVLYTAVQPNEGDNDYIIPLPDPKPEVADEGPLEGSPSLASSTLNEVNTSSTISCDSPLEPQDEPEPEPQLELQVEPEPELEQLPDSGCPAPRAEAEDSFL
Procedure, shortened: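 GST-tagged cytoplasmic domain (aa 557-1106) from baculovirus was incubated 1 h at room temperature with compound, CSKtide, ATP at Km and Mg²⁺ in HEPES buffer, pH 7.5. Phosphorylated and unphosphorylated peptide were separated by off-chip mobility shift, and the product ratio P/(P+S) gave percent inhibition.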

T1 sequence (P16234 550-1089 T674I): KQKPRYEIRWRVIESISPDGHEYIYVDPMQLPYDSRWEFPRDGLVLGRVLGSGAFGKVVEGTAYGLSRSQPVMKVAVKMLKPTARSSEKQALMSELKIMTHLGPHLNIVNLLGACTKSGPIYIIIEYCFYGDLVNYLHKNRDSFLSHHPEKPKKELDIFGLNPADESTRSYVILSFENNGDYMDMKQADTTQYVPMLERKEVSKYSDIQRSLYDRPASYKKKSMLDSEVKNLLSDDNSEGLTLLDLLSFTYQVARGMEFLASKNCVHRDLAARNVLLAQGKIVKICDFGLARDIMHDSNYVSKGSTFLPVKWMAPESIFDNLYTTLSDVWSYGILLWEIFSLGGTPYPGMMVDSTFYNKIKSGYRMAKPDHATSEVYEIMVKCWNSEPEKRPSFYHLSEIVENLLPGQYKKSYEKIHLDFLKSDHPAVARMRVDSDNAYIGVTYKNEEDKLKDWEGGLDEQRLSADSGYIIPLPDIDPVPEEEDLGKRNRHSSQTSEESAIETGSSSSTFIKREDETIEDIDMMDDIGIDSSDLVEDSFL

| Structure (SMILES) | pIC50 [1] | pIC50 [2] |
| --- | --- | --- |
| CCn1cc2ncc(N[C@@H](C)c3cccc(NC(=O)Cc4cncc(F)c4)c3)nc2n1 [Compound 623, (S)-N-(3-(1-((2-ethyl-2H-pyrazolo[3,4-b]pyrazin-6-yl)amino)ethyl)phenyl)-2-(5-fluoropyridin-3-yl)acetamide] | 6.00 to 6.52 | ≤ 6.00 |
| Cc1cc(C(=O)Nc2cccc([C@H](C)Nc3cnc4cnn(C)c4n3)c2)cnc1OCC(C)C [Compound 229, (S)-6-isobutoxy-5-methyl-N-(3-(1-((1-methyl-1H-pyrazolo[3,4-b]pyrazin-6-yl)amino)ethyl)phenyl)nicotinamide] | > 6.52 | > 6.52 |
| CCn1cc2ncc(N[C@@H](C)c3cc(NC(=O)c4ccc(C(F)(F)F)nc4)ccc3C(F)(F)F)nc2n1 [Compound 459, (S)-N-(3-(1-((2-ethyl-2H-pyrazolo[3,4-b]pyrazin-6-yl)amino)ethyl)-4-(trifluoromethyl)phenyl)-6-(trifluoromethyl) nicotinamide] | ≤ 6.00 | ≤ 6.00 |
| CCn1cc2ncc(N[C@@H](C)c3cccc(NC(=O)c4ccc(CN5CCCC5)c(Cl)c4)c3)nc2n1 [Compound 418, (S)-3-chloro-N-(3-(1-((2-ethyl-2H-pyrazolo[3,4-b]pyrazin-6-yl)amino)ethyl)phenyl)-4-(pyrrolidin-1-ylmethyl) benzamide] | > 6.52 | > 6.52 |
| C[C@H](Nc1cnc2cnn(C)c2n1)c1cccc(NC(=O)c2cnc(C(F)F)s2)c1 [Compound 141, (S)-2-(difluoromethyl)-N-(3-(1-((1-methyl-1H-pyrazolo[3,4-b]pyrazin-6-yl)amino)ethyl)phenyl)thiazole-5-carboxamide] | > 6.52 | > 6.52 |
| C[C@H](Nc1cnc2cnn(C)c2n1)c1cccc(NC(=O)c2cnn(C)c2)c1 [Compound 146, (S)-1-methyl-N-(3-(1-((1-methyl-1H-pyrazolo[3,4-b]pyrazin-6-yl)amino)ethyl)phenyl)-1H-pyrazole-4-carboxamide] | 6.00 to 6.52 | ≤ 6.00 |
| CCn1cc2ncc(N[C@@H](C)c3cccc(NC(=O)c4cnc(C)c(F)c4)c3)nc2n1 [Compound 419, (S)-N-(3-(1-((2-ethyl-2H-pyrazolo[3,4-b]pyrazin-6-yl)amino)ethyl)phenyl)-5-fluoro-6-methylnicotinamide] | > 6.52 | 6.00 to 6.52 |
| C[C@H](Nc1cnc2cnn(C)c2n1)c1cccc(NC(=O)c2cccc(S(C)(=O)=O)c2)c1 [Compound 226, (S)-N-(3-(1-((1-methyl-1H-pyrazolo[3,4-b]pyrazin-6-yl)amino)ethyl)phenyl)-3-(methylsulfonyl)benzamide] | > 6.52 | > 6.52 |
| Cc1cncc(C(=O)Nc2cccc([C@H](C)Nc3cnc4ccsc4c3)c2)c1 [Compound 606, (S)-5-methyl-N-(3-(1-(thieno[3,2-b]pyridin-6-ylamino)ethyl)phenyl) nicotinamide] | > 6.52 | > 6.52 |
| CCn1cc2ncc(N[C@@H](C)c3cccc(NC(=O)c4ccc(N(C)C)nc4)c3)nc2n1 [Compound 377, (S)-6-(dimethylamino)-N-(3-(1-((2-ethyl-2H-pyrazolo[3,4-b]pyrazin-6-yl)amino)ethyl)phenyl)nicotinamide] | 6.00 to 6.52 | 6.00 to 6.52 |
| CCn1cc2ncc(N[C@@H](C)c3cc(NC(=O)Cc4ccc(Cl)c(C)n4)ccc3C)nc2n1 [Compound 670, (S)-2-(5-chloro-6-methylpyridin-2-yl)-N-(3-(1-((2-ethyl-2H-pyrazolo[3,4-b]pyrazin-6-yl)amino)ethyl)-4-methylphenyl)acetamide] | > 6.52 | > 6.52 |
| CCn1cc2ncc(N[C@@H](C)c3cccc(NC(=O)c4cnc(COC)s4)c3)nc2n1 [Compound 338, (S)-N-(3-(1-((2-ethyl-2H-pyrazolo[3,4-b]pyrazin-6-yl)amino)ethyl)phenyl)-2-(methoxymethyl)thiazole-5-carboxamide] | > 6.52 | 6.00 to 6.52 |
| CCn1cc2ncc(N[C@@H](C)c3cccc(NC(=O)c4cncc(C)c4)c3)nc2n1 [Compound 9, (S)—N-(3-(1-((2-ethyl-2H-pyrazolo[3,4-b]pyrazin-6-yl)amino)ethyl)phenyl)-5-methylnicotinamide] | > 6.52 | 6.00 to 6.52 |
| CCn1cc2ncc(N[C@@H](C)c3cccc(NC(=O)c4cc(F)c(CN5CC6(COC6)C5)c(Cl)c4)c3)nc2n1 [Compound 490, (S)-4-((2-oxa-6-azaspiro[3.3]heptan-6-yl)methyl)-3-chloro-N-(3-(1-((2-ethyl-2H-pyrazolo[3,4-b]pyrazin-6-yl)amino)ethyl)phenyl)-5-fluorobenzamide] | > 6.52 | > 6.52 |
| CCc1cc2ncc(N[C@@H](C)c3cc(NC(=O)c4ccc(C(F)(F)F)nc4)ccc3F)nc2s1 [Compound 620, (S)-N-(3-(1-((6-ethylthieno[2,3-b]pyrazin-3-yl)amino)ethyl)-4-fluorophenyl)-6-(trifluoromethyl)nicotinamide] | > 6.52 | > 6.52 |

More lines, now with the values ahead:

| pIC50 [1] | pIC50 [2] | Structure (SMILES) |
| --- | --- | --- |
| > 6.52 | > 6.52 | C[C@H](Nc1cnc2cnn(C)c2n1)c1cccc(NC(=O)c2ccc3c(c2)OCCO3)c1 [Compound 68, (S)-N-(3-(1-((1-methyl-1H-pyrazolo[3,4-b]pyrazin-6-yl)amino)ethyl)phenyl)-2,3-dihydrobenzo[b][1,4]dioxine-6-carboxamide] |
| > 6.52 | > 6.52 | COc1ccc(C(=O)Nc2cccc([C@H](C)Nc3cnc4cnn(C)c4n3)c2)cc1F [Compound 189, (S)-3-fluoro-4-methoxy-N-(3-(1-((1-methyl-1H-pyrazolo[3,4-b]pyrazin-6-yl)amino)ethyl)phenyl)benzamide] |
| > 6.52 | > 6.52 | Cc1cncc(C(=O)Nc2cccc([C@H](C)Nc3cnc4cc(F)c(F)cc4n3)c2)c1 [Compound 36, (S)-N-(3-(1-((6,7-difluoroquinoxalin-2-yl)amino)ethyl)phenyl)-5-methylnicotinamide] |
| > 6.52 | > 6.52 | CC1OC(=O)c2ccc(C(=O)Nc3cccc([C@H](C)Nc4cnc5cnn(C)c5n4)c3)cc21 (stereo partly drawn) [Compound 76, 3-methyl-N-(3-((S)-1-((1-methyl-N-pyrazolo[3,4-b]pyrazin-6-yl)amino)ethyl)phenyl)-1-oxo-1,3-dihydroisobenzofuran-5-carboxamide] |
| > 6.52 | > 6.52 | COc1ccc(C(=O)Nc2cccc([C@H](C)Nc3cnc4cnn(C)c4n3)c2)cc1C [Compound 210, (S)-4-methoxy-3-methyl-N-(3-(1-((1-methyl-1H-pyrazolo[3,4-b]pyrazin-6-yl)amino)ethyl)phenyl)benzamide] |
| > 6.52 | > 6.52 | CCn1cc2ncc(N[C@@H](C)c3cccc(NC(=O)Cc4cc(C)cc(F)c4)c3)nc2n1 [Compound 639, (S)-N-(3-(1-((2-ethyl-2H-pyrazolo[3,4-b]pyrazin-6-yl)amino)ethyl)phenyl)-2-(3-fluoro-5-methylphenyl) acetamide] |
| > 6.52 | > 6.52 | Cc1ncc(C(=O)Nc2cccc([C@H](C)Nc3cnc4[nH]cc(-c5cnn(C)c5)c4n3)c2)s1 [Compound 583, (S)-2-methyl-N-(3-(1-((7-(1-methyl-1H-pyrazol-4-yl)-5H-pyrrolo[2,3-b]pyrazin-2-yl)amino)ethyl)phenyl)thiazole-5-carboxamide] |
| > 6.52 | ≤ 6.00 | C[C@H](Nc1cnc2cnn(C)c2n1)c1cccc(NC(=O)c2ccn(C(F)F)n2)c1 [Compound 155, (S)-1-(difluoromethyl)-N-(3-(1-((1-methyl-1H-pyrazolo[3,4-b]pyrazin-6-yl)amino)ethyl)phenyl)-1H-pyrazole-3-carboxamide] |
| > 6.52 | > 6.52 | Cc1n[nH]c2ncc(N[C@@H](C)c3cccc(NC(=O)c4cnc(C5CC5)s4)c3)nc12 [Compound 541, (S)-2-cyclopropyl-N-(3-(1-((3-methyl-1H-pyrazolo[3,4-b]pyrazin-5-yl)amino)ethyl)phenyl)thiazole-5-carboxamide] |
| > 6.52 | 6.00 to 6.52 | CCn1cc2ncc(N[C@@H](C)c3cccc(NC(=O)c4ccc(C(=O)N5CCN(C)CC5)c(Cl)c4)c3)nc2n1 [Compound 466, (S)-3-chloro-N-(3-(1-((2-ethyl-2H-pyrazolo[3,4-b]pyrazin-6-yl)amino)ethyl)phenyl)-4-(4-methylpiperazine-1-carbonyl) benzamide] |
| > 6.52 | > 6.52 | CCn1cc2ncc(N[C@@H](C)c3cccc(NC(=O)c4ccc(CN5CC(F)C5)c(Cl)c4)c3)nc2n1 [Compound 495, (S)-3-chloro-N-(3-(1-((2-ethyl-2H-pyrazolo[3,4-b]pyrazin-6-yl)amino)ethyl)phenyl)-4-((3-fluoroazetidin-1-yl)methyl) benzamide] |
| > 6.52 | ≤ 6.00 | Cc1cnn(C(=O)Nc2cccc([C@H](C)Nc3cnc4cnn(C)c4n3)c2)c1 [Compound 168, (S)-4-methyl-N-(3-(1-((1-methyl-1H-pyrazolo[3,4-b]pyrazin-6-yl)amino)ethyl)phenyl)-1H-pyrazole-1-carboxamide] |
| > 6.52 | 6.00 to 6.52 | C[C@H](Nc1cnc2cnn(C)c2n1)c1cccc(NC(=O)c2cncc(CO)c2)c1 [Compound 106, (S)-5-(hydroxymethyl)-N-(3-(1-((1-methyl-1H-pyrazolo[3,4-b]pyrazin-6-yl)amino)ethyl)phenyl)nicotinamide] |
| > 6.52 | > 6.52 | Cc1cncc(C(=O)Nc2cccc([C@H](C)Nc3cnc4[nH]ccc4n3)c2)c1 [Compound 552, (S)-N-(3-(1-((5H-pyrrolo[2,3-b]pyrazin-2-yl)amino)ethyl)phenyl)-5-methylnicotinamide] |
| > 6.52 | > 6.52 | CCn1cc2ncc(N[C@@H](C)c3cc(NC(=O)c4ccc(CN5CCCC5)c(C)c4)ccc3C)nc2n1 [Compound 522, (S)-N-(3-(1-((2-ethyl-2H-pyrazolo[3,4-b]pyrazin-6-yl)amino)ethyl)-4-methylphenyl)-3-methyl-4-(pyrrolidin-1-ylmethyl)benzamide] |
